In patent publication US12083124B2 (Incyte Corporation, priority 2019, dated 2024):
Where two headings read alike, the source gives them in different places.

Legend:
[1] = biological target: wild-type un-phosphorylated FGFR4 (Homo sapiens, UniProt P22455); assay: FGFR Enzymatic Assay (FRET peptide phosphorylation), FGFR4
Experimental: The inhibitor potency of the exemplified compounds was determined in an enzyme discontinuous assay that measures peptide phosphorylation using FRET measurements to detect product formation. Inhibitors were serially diluted in DMSO and a volume of 0.2 μL was transferred to the wells of a 384-well plate. […] Appropriate controls (enzyme blank and enzyme with no inhibitor) were included on the plate. […] The 10 μL/well reaction concentration of the peptide substrate was 500 nM whereas the ATP concentration was maintained near or below the ATP Km. The ATP Km values were pre-determined in a separate series of experiments. The reaction plate was incubated at 25° C. for 1 hr and the reactions were ended with the addition of 5 μL/well of quench solution (50 mM Tris, 150 mM NaCl, 0.5 mg/mL BSA, pH 7.8; 45 mM EDTA, 600 nM staurosporin, with Perkin Elmer Lance Reagents at 3.75 nM Eu-antibody PY20 and 180 nM APC-Streptavidin). The plate was allowed to equilibrate for ˜10 minutes at ambient temperature before scanning on a PheraStar plate reader (BMG Labtech) instrument.
Either GraphPad prism or XLfit was used to analyze the data. The IC50 values were derived by fitting the data to a four parameter logistic equation producing a sigmoidal dose-response curve with a variable Hill coefficient. Prism equation: Y=Bottom+(Top-Bottom)/(1+10^((Log IC50-X)*Hill slope)); XLfit equation: Y=(A+((B−A)/(1+((X/C)^D)))) where X is the logarithm of inhibitor concentration and Y is the response.
GraphPad prism3 was used to analyze the data. The IC50 values were derived by fitting the data to the equation for a sigmoidal dose-response with a variable slope. Y=Bottom+(Top-Bottom)/(1+10^((Log IC50-X)*Hill Slope)) where X is the logarithm of concentration and Y is the response.
The data in Table 1 was measured in wild-type un-phosphorylated FGFR1, FGFR2, FGFR3, and FGFR4 proteins.

[2] = biological target: wild-type un-phosphorylated FGFR3 (Homo sapiens, UniProt P22607); assay: FGFR Enzymatic Assay (FRET peptide phosphorylation), FGFR3
[3] = biological target: wild-type un-phosphorylated FGFR1 (Homo sapiens, UniProt P11362); assay: FGFR Enzymatic Assay (FRET peptide phosphorylation), FGFR1; details: pre-incubated for 4 hours
[4] = biological target: wild-type un-phosphorylated FGFR2 (Homo sapiens, UniProt P21802); assay: FGFR Enzymatic Assay (FRET peptide phosphorylation), FGFR2
[5] = read-out: FGFR4, wild-type un-phosphorylated FGFR4, pre-incubated for 4 hours
[6] = read-out: FGFR1, wild-type un-phosphorylated FGFR1
[7] = FGFR1, wild-type un-phosphorylated FGFR1
[8] = read-out: FGFR2, wild-type un-phosphorylated FGFR2, pre-incubated for 4 hours

Chain of wild-type un-phosphorylated FGFR1 (P11362 22-822): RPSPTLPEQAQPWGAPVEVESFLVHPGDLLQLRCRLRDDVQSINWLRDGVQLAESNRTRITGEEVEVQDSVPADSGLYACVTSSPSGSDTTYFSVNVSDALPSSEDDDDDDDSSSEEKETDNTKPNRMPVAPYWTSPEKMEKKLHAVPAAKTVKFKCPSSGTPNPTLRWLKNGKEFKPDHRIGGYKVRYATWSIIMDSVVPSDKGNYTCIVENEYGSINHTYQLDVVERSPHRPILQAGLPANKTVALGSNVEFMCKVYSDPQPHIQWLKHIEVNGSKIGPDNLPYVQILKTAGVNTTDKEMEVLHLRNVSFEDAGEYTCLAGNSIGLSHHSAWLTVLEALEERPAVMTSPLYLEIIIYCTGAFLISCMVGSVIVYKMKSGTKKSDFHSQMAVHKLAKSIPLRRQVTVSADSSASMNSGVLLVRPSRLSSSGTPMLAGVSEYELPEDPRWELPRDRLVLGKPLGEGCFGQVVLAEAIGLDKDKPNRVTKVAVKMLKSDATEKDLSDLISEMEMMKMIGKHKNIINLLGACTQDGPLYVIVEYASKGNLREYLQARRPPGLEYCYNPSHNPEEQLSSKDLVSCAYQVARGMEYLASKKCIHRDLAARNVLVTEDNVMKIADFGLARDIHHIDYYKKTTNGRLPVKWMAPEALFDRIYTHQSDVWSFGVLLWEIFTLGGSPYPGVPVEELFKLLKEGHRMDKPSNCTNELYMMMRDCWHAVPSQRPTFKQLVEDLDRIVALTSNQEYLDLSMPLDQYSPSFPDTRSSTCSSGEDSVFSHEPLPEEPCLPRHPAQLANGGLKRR
Chain of wild-type un-phosphorylated FGFR4 (P22455 22-802): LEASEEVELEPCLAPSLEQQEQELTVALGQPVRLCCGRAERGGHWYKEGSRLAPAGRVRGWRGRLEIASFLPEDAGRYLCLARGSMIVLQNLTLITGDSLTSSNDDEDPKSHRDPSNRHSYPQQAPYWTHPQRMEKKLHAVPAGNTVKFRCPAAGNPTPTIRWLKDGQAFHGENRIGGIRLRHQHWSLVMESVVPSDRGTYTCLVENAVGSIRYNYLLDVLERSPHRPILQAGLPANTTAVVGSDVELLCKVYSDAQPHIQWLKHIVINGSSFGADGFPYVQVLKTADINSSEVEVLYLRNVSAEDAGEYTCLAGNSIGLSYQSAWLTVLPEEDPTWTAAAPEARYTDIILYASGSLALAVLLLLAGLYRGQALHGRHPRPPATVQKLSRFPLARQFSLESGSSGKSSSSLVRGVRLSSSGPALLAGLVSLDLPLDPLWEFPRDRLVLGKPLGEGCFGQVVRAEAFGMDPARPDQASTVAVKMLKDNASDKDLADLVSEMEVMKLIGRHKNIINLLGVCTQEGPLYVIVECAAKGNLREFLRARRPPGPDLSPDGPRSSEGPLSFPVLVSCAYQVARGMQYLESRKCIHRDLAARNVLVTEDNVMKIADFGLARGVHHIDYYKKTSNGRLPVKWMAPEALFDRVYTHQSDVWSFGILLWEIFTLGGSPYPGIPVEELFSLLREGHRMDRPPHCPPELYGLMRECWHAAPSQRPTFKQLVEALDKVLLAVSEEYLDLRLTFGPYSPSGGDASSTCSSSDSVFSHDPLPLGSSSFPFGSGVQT
Chain of wild-type un-phosphorylated FGFR3 (P22607 23-806): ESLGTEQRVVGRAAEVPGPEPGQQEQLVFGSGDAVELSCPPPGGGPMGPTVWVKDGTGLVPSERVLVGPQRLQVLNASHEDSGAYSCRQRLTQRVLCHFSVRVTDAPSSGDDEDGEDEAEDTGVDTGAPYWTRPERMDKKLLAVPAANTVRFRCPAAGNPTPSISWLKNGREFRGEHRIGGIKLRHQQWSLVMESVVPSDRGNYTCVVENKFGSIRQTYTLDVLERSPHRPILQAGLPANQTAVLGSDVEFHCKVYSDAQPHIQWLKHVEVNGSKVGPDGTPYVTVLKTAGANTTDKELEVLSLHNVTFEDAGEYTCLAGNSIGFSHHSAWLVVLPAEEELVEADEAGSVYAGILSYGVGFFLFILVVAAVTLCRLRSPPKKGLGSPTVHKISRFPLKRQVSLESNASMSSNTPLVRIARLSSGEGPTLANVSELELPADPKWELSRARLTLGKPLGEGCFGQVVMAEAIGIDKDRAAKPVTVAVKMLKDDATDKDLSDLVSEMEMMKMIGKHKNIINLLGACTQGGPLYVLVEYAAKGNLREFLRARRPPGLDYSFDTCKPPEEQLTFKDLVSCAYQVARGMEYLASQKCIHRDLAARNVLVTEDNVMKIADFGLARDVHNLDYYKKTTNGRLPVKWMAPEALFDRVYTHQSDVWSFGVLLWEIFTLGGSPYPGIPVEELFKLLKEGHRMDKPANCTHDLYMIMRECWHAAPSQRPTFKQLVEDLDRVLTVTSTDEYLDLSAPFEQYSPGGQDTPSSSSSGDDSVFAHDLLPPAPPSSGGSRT
Chain of wild-type un-phosphorylated FGFR2 (P21802 22-821): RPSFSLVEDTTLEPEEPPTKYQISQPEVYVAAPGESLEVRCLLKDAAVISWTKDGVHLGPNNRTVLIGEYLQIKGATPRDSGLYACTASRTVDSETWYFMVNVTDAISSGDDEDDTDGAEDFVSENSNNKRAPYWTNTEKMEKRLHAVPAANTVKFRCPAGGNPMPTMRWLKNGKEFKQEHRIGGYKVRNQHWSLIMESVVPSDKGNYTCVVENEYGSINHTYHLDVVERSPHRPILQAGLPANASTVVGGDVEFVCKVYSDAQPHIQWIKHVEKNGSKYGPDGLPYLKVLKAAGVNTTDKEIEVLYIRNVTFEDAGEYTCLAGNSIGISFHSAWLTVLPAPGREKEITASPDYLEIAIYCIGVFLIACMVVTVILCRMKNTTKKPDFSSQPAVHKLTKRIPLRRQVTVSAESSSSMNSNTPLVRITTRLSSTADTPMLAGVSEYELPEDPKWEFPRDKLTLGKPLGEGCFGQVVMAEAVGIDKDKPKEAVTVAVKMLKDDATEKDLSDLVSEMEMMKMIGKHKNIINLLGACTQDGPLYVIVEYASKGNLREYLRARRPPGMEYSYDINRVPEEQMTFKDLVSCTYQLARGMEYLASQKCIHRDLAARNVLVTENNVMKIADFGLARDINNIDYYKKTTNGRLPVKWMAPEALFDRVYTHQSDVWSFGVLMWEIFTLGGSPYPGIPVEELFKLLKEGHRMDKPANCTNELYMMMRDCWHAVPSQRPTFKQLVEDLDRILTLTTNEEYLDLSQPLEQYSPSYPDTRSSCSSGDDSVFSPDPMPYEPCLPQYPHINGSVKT

COc1cc2[nH]nc(-c3ccc([C@@]45C[C@@H]4CN(CCO)C5)cc3)c2nc1-c1cccc2c1CCC2C#N (stereo partly drawn) [Example 159, 4-(3-(4-((1R,5S)-3-(2-Hydroxyethyl)-3-azabicyclo[3.1.0]hexan-1-yl)phenyl)-6-methoxy-1H-pyrazolo[4,3-b]pyridin-5-yl)-2,3-dihydro-1H-indene-1-carbonitrile]
IC50 [1, 5]: 6 to 40 nM | IC50 [2]: < 6 nM | IC50 [3, 6]: 6 to 40 nM | IC50 [4]: < 6 nM

COCC(=O)N(C)C1CC(c2ccc(-c3n[nH]c4cc(OC)c(-c5cccc6c5CCC6)nc34)cn2)C1 (centres unmarked) [Example 188, N-(3-(5-(5-(2,3-Dihydro-1H-inden-4-yl)-6-methoxy-1H-pyrazolo[4,3-b]pyridin-3-yl)pyridin-2-yl)cyclobutyl)-2-methoxy-N-methylacetamide]
IC50 [1, 5]: 6 to 40 nM | IC50 [2]: < 6 nM | IC50 [3, 6]: 6 to 40 nM | IC50 [4]: < 6 nM

COc1cc2[nH]nc(-c3cnn(C)c3)c2nc1-c1cccc(C)c1C [Example 1, 5-(2,3-Dimethylphenyl)-6-methoxy-3-(1-methyl-1H-pyrazol-4-yl)-1H-pyrazolo[4,3-b]pyridine]
IC50 [1]: > 100 nM | IC50 [2]: < 6 nM | IC50 [3, 7]: > 100 nM | IC50 [4, 8]: 6 to 40 nM

COc1cc2[nH]nc(-c3cnn(C4CN(C(=O)N(C)C)C4)c3)c2nc1-c1cccc2c1CCC2 [Example 24, 3-(4-(5-(2,3-Dihydro-1H-inden-4-yl)-6-methoxy-1H-pyrazolo[4,3-b]pyridin-3-yl)-1H-pyrazol-1-yl)-N,N-dimethylazetidine-1-carboxamide]
IC50 [1, 5]: 6 to 40 nM | IC50 [2]: < 6 nM | IC50 [3, 6]: 6 to 40 nM | IC50 [4]: < 6 nM

COc1cc2[nH]nc(-c3ccc(C4CCN(C(=O)CO)CC4)nc3)c2nc1-c1cccc(C)c1C [Example 78, 1-(4-(5-(5-(2,3-Dimethylphenyl)-6-methoxy-1H-pyrazolo[4,3-b]pyridin-3-yl)pyridin-2-yl)piperidin-1-yl)-2-hydroxyethan-1-one]
IC50 [1]: > 100 nM | IC50 [2]: < 6 nM | IC50 [3, 7]: > 100 nM | IC50 [4]: < 6 nM

COc1cc2[nH]nc(-c3cnn(C4CN(C(=O)[C@H]5C[C@@H](O)C5)C4)c3)c2nc1-c1cccc2c1CCC2 [Example 126, (3-(4-(5-(2,3-Dihydro-1H-inden-4-yl)-6-methoxy-1H-pyrazolo[4,3-b]pyridin-3-yl)-1H-pyrazol-1-yl)azetidin-1-yl)((cis)-3-hydroxycyclobutyl)methanone]
IC50 [1, 5]: 6 to 40 nM | IC50 [2]: < 6 nM | IC50 [3, 6]: 6 to 40 nM | IC50 [4]: < 6 nM

COC(=O)N1CCC(n2cc(-c3n[nH]c4cc(OC)c(-c5cccc6c5CCC6)nc34)cn2)CC1 [Example 20, Methyl 4-(4-(5-(2,3-dihydro-1H-inden-4-yl)-6-methoxy-1H-pyrazolo[4,3-b]pyridin-3-yl)-1H-pyrazol-1-yl)piperidine-1-carboxylate]
IC50 [1]: > 100 nM | IC50 [2]: < 6 nM | IC50 [3, 7]: 40 to 100 nM | IC50 [4]: < 6 nM

COc1cc2[nH]nc(-c3cnn(C4CN(C(=O)[C@@H]5CCN5CCF)C4)c3)c2nc1-c1cccc2c1CCC2 [Example 141, (S)-(3-(4-(5-(2,3-Dihydro-1H-inden-4-yl)-6-methoxy-1H-pyrazolo[4,3-b]pyridin-3-yl)-1H-pyrazol-1-yl)azetidin-1-yl)(1-(2-fluoroethyl)azetidin-2-yl)methanone]
IC50 [1, 5]: 6 to 40 nM | IC50 [2]: < 6 nM | IC50 [3, 6]: 6 to 40 nM | IC50 [4]: < 6 nM

COc1cc2[nH]nc(-c3ccc(C4CCC(NC(=O)[C@H](C)O)C4)nc3)c2nc1-c1cccc2c1CCC2 (stereo partly drawn) [Example 156, (2S)-N-(3-(5-(5-(2,3-Dihydro-1H-inden-4-yl)-6-methoxy-1H-pyrazolo[4,3-b]pyridin-3-yl)pyridin-2-yl)cyclopentyl)-2-hydroxypropanamid]
IC50 [1, 5]: 6 to 40 nM | IC50 [2]: < 6 nM | IC50 [3, 6]: 6 to 40 nM | IC50 [4]: < 6 nM

COc1cc2[nH]nc(-c3ccc(C4CCN(C(C)=O)CC4)nc3)c2nc1-c1cccc2c1CCC2C#N (single isomer, unassigned) [Example 182, 4-(3-(6-(1-Acetylpiperidin-4-yl)pyridin-3-yl)-6-methoxy-1H-pyrazolo[4,3-b]pyridin-5-yl)-2,3-dihydro-1H-indene-1-carbonitrile]
IC50 [1, 5]: 6 to 40 nM | IC50 [2]: < 6 nM | IC50 [3, 6]: 6 to 40 nM | IC50 [4]: < 6 nM

COc1cc2[nH]nc(-c3ccc(C4CCN(C(=O)[C@@H]5CCCN5C)CC4)nc3)c2nc1-c1cccc2c1CCC2 [Example 108, 5-(2,3-Dihydro-1H-inden-4-yl)-6-methoxy-3-(6-(1-(methyl-L-prolyl)piperidin-4-yl)pyridin-3-yl)-1H-pyrazolo[4,3-b]pyridine]
IC50 [1, 5]: 6 to 40 nM | IC50 [2]: < 6 nM | IC50 [3, 6]: 6 to 40 nM | IC50 [4]: < 6 nM

COc1cc2[nH]nc(-c3ccc(N4CCN(C(C)=O)CC4)cc3)c2nc1-c1cccc2c1CCC2 [Example 61, 1-(4-(4-(5-(2,3-Dihydro-1H-inden-4-yl)-6-methoxy-1H-pyrazolo[4,3-b]pyridin-3-yl)phenyl)piperazin-1-yl)ethan-1-one]
IC50 [1]: > 100 nM | IC50 [2]: < 6 nM | IC50 [3, 7]: 40 to 100 nM | IC50 [4]: < 6 nM

COc1cc2[nH]nc(-c3ccc(C4CC(N(C)C(=O)CCO)C4)nc3)c2nc1-c1cccc2c1CCC2 (centres unmarked) [Example 189, N-(3-(5-(5-(2,3-Dihydro-1H-inden-4-yl)-6-methoxy-1H-pyrazolo[4,3-b]pyridin-3-yl)pyridin-2-yl)cyclobutyl)-3-hydroxy-N-methylpropanamide]
IC50 [1, 5]: 6 to 40 nM | IC50 [2]: < 6 nM | IC50 [3, 6]: 6 to 40 nM | IC50 [4]: < 6 nM

COc1cc2[nH]nc(-c3ccc(C4(C#N)CCN(C(=O)CO)CC4)nc3)c2nc1-c1cccc2c1CCC2 [Example 165, 4-(5-(5-(2,3-Dihydro-1H-inden-4-yl)-6-methoxy-1H-pyrazolo[4,3-b]pyridin-3-yl)pyridin-2-yl)-1-(2-hydroxyacetyl)piperidine-4-carbonitrile]
IC50 [1, 5]: 6 to 40 nM | IC50 [2]: < 6 nM | IC50 [3, 6]: 6 to 40 nM | IC50 [4]: < 6 nM

COc1cc2[nH]nc(-c3cnn([C@H]4CCN(C(=O)[C@H]5C[C@@](C)(O)C5)C4)c3)c2nc1-c1cccc2c1CCC2 [Example 146, ((S)-3-(4-(5-(2,3-Dihydro-1H-inden-4-yl)-6-methoxy-1H-pyrazolo[4,3-b]pyridin-3-yl)-1H-pyrazol-1-yl)pyrrolidin-1-yl)((1s,3r)-3-hydroxy-3-methylcyclobutyl)methanone]
IC50 [1, 5]: 6 to 40 nM | IC50 [2]: < 6 nM | IC50 [3, 6]: 6 to 40 nM | IC50 [4]: < 6 nM

CCNC(=O)N1CCN(c2ccc(-c3n[nH]c4cc(OC)c(-c5cccc6c5CCC6)nc34)cn2)CC1 [Example 59, 4-(5-(5-(2,3-Dihydro-1H-inden-4-yl)-6-methoxy-1H-pyrazolo[4,3-b]pyridin-3-yl)pyridin-2-yl)-N-ethylpiperazine-1-carboxamide]
IC50 [1, 5]: 6 to 40 nM | IC50 [2]: < 6 nM | IC50 [3, 6]: 6 to 40 nM | IC50 [4]: < 6 nM

COc1cc2[nH]nc(-c3ccc(C4CN(C(=O)CCO)C4)nc3)c2nc1-c1cccc2c1CCC2 [Example 175, 1-(3-(5-(5-(2,3-Dihydro-1H-inden-4-yl)-6-methoxy-1H-pyrazolo[4,3-b]pyridin-3-yl)pyridin-2-yl)azetidin-1-yl)-3-hydroxypropan-1-one]
IC50 [1, 5]: 6 to 40 nM | IC50 [2]: < 6 nM | IC50 [3, 6]: 6 to 40 nM | IC50 [4]: < 6 nM

COc1cc2[nH]nc(-c3ccc(C4CN(C(=O)[C@H](C)O)C4)nc3)c2nc1-c1cccc2c1CCC2 [Example 177, (S)-1-(3-(5-(5-(2,3-Dihydro-1H-inden-4-yl)-6-methoxy-1H-pyrazolo[4,3-b]pyridin-3-yl)pyridin-2-yl)azetidin-1-yl)-2-hydroxypropan-1-one]
IC50 [1]: 40 to 100 nM | IC50 [2]: < 6 nM | IC50 [3, 7]: 40 to 100 nM | IC50 [4]: < 6 nM

COc1cc2[nH]nc(-c3cnn([C@H]4CCN(C(=O)[C@H]5COCCN5C)C4)c3)c2nc1-c1cccc2c1CCC2 [Example 138, ((S)-3-(4-(5-(2,3-Dihydro-1H-inden-4-yl)-6-methoxy-1H-pyrazolo[4,3-b]pyridin-3-yl)-1H-pyrazol-1-yl)pyrrolidin-1-yl)((R)-4-methylmorpholin-3-yl)methanone]
IC50 [1]: 40 to 100 nM | IC50 [2]: < 6 nM | IC50 [3, 6]: 6 to 40 nM | IC50 [4]: < 6 nM

[2H]C1(O)Cc2cccc(-c3nc4c(-c5cnn(C)c5)n[nH]c4cc3OC)c2C1 (single isomer, unassigned) [Example 74, 4-(6-Methoxy-3-(1-methyl-1H-pyrazol-4-yl)-1H-pyrazolo[4,3-b]pyridin-5-yl) 2,3-dihydro-1H-inden-2-d-2-ol]
IC50 [1]: > 100 nM | IC50 [2]: < 6 nM | IC50 [3, 6]: 6 to 40 nM | IC50 [4]: < 6 nM

COc1cc2[nH]nc(-c3cnn(C4CN(C(=O)CCN(C)C)C4)c3)c2nc1-c1cccc2c1CCC2 [Example 117, 1-(3-(4-(5-(2,3-Dihydro-1H-inden-4-yl)-6-methoxy-1H-pyrazolo[4,3-b]pyridin-3-yl)-1H-pyrazol-1-yl)azetidin-1-yl)-3-(dimethylamino)propan-1-one]
IC50 [1]: 40 to 100 nM | IC50 [2]: < 6 nM | IC50 [3, 6]: 6 to 40 nM | IC50 [4]: < 6 nM

Cc1cc2[nH]nc(-c3cnn(C)c3)c2nc1-c1cccc(C)c1C [Example 40, 5-(2,3-Dimethylphenyl)-6-methyl-3-(1-methyl-1H-pyrazol-4-yl)-1H-pyrazolo[4,3-b]pyridine]
IC50 [1]: > 100 nM | IC50 [2]: < 6 nM | IC50 [3, 7]: > 100 nM | IC50 [4, 8]: 6 to 40 nM

COc1cc2[nH]nc(-c3ccc(C4CN(C(=O)CO)C4)nc3)c2nc1-c1cccc2c1CCC2 [Example 176, 1-(3-(5-(5-(2,3-Dihydro-1H-inden-4-yl)-6-methoxy-1H-pyrazolo[4,3-b]pyridin-3-yl)pyridin-2-yl)azetidin-1-yl)-2-hydroxyethan-1-one]
IC50 [1]: 40 to 100 nM | IC50 [2]: < 6 nM | IC50 [3, 6]: 6 to 40 nM | IC50 [4]: < 6 nM
